The target of one test is T1, JAK2 (Homo sapiens, UniProt O60674).
T1 construct: purchased Invitrogen PV4210
Put plainly: Inhibition of JAK2 kinase, LANCE Ultra TR-FRET assay. The format is biochemical. The conditions noted are these: 2x ATP 24 μM, 15 min pre-incubation, 90 min reaction, 23° C. A digest of the protocol: (§1)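 TR-FRET phosphorylation of 50 nM ULight-JAK-1 peptide read via Eu-PT66 antibody after 90 min reaction at 23 °C in HEPES pH 7.5 buffer. Enzyme levels: JAK1 2 nM, […], TYK2 4 nM; ATP as 2× stock 76/24/8/30 μM. 15-min compound preincubation; 4-parameter IC50.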

Another test addresses T2, JAK1 (Homo sapiens, UniProt P23458).
T2 construct: purchased Invitrogen PV4775
Put plainly: Inhibition of JAK1 kinase, LANCE Ultra TR-FRET assay. The class given is biochemical. The settings on record: 2 nM JAK1, 2x ATP 76 μM, 15 min pre-incubation, 90 min reaction, 23° C. In outline: as §1
(In general: In TR-FRET formats the signal depends on donor and acceptor labels being close together.)

Another test has as its system Hut-78 cells. Put plainly: Inhibition in Hut-78 cells (IL-2 stimulated, HTRF). The format is cell-based. The conditions noted are these: Homo sapiens. The procedure:
Exemplary compounds were assayed to determine potency in inhibiting Hut-78 cells by determining IC50 values.
Hut-78 cells were cultures in IMDM+20% FBS medium. Cells were maintained in log phase before the assay. Cell pellets were collected and resuspended in serum-free and phenol-free RPMI 1640 medium. 40,000 cells/well (10 μL) were seeded in each well of a 384-well plate and incubated with and without compound for 2 hours at 37° C. and 5% C02. IL-2 was added (2 μL, final concentration 100 ng/mL) and the mixture was incubated for 10 min. Cells were lysed by adding 4 μL labeled antibodies and the mixture was incubated overnight. The plate was read using the HTRF protocol on an Envision plate reader. The data was analyzed using XL-fit software (Supplier: ID business solutions Ltd.; Software version: XL fit 5.0). Inhibition %=(Max−Sample value)/(Max−Min)*100.
In the table, “A” indicates an IC50 of less than 0.5 μM, “B” indicates an IC50 range from 0.5 μM to 1 μM; and “C” indicates an IC50 range from 1 μM to 10 μM. Also, “na” indicates data is not available.

The next test has as its target T3, JAK3 (Homo sapiens, UniProt P52333).
T3 construct: purchased Invitrogen PV4080
T3 sequence (P52333 1-1124): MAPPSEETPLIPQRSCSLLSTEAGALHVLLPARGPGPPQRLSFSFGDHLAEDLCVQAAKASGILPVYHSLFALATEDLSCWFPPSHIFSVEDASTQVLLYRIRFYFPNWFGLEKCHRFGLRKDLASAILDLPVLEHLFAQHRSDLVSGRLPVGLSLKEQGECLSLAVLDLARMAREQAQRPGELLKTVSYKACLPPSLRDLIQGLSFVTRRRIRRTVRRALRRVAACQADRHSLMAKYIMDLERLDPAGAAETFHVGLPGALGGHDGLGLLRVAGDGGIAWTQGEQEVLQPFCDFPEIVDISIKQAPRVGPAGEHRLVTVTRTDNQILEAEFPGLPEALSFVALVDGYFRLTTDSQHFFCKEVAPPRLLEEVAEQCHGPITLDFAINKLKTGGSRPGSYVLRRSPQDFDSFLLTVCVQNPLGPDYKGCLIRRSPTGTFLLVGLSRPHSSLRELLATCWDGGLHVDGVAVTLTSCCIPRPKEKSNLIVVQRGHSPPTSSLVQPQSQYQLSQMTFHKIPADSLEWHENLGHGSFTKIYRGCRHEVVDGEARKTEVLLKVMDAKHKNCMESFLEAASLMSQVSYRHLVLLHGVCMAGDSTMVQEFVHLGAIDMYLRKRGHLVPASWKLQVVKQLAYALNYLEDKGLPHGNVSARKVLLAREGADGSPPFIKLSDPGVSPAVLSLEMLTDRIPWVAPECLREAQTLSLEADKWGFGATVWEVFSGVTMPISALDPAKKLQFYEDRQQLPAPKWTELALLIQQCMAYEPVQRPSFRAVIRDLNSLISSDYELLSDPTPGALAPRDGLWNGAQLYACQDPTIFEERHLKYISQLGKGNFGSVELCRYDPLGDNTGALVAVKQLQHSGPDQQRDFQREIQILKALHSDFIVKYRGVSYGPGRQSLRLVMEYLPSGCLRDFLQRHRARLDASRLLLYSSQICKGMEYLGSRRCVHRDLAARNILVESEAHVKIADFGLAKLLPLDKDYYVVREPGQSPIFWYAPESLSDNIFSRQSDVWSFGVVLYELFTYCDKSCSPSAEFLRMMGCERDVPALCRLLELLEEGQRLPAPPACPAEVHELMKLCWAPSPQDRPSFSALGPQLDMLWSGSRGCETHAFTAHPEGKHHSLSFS
As to the kind of experiment: Inhibition of JAK3 kinase, LANCE Ultra TR-FRET assay. The format is biochemical. The conditions noted are these: 2x ATP 8 μM, 15 min pre-incubation, 90 min reaction, 23° C. A digest of the protocol: as §1

Another test concerns the target T4, TYK2 (Homo sapiens, UniProt P29597).
T4 construct: purchased Invitrogen PR8440C
As to the kind of experiment: Inhibition of TYK2 kinase, LANCE Ultra TR-FRET assay. The format is biochemical. The conditions noted are these: 4 nM TYK2, 2x ATP 30 μM, 15 min pre-incubation, 90 min reaction, 23° C., read-out: tyk IC50. In outline: as §1

The mark [1] stands for this setting: HuT78, compound 2 hours at 37° C., then IL-2 100 ng/mL 10 min, HTRF, read-out: Hut-78 cells IC50.

Molecules are shown by their SMILES. Read-outs that look alike come from different tables or passages of the source.

In general, IC50 refers to the concentration that gives 50% inhibition.

T4 sequence (P29597 whole entry): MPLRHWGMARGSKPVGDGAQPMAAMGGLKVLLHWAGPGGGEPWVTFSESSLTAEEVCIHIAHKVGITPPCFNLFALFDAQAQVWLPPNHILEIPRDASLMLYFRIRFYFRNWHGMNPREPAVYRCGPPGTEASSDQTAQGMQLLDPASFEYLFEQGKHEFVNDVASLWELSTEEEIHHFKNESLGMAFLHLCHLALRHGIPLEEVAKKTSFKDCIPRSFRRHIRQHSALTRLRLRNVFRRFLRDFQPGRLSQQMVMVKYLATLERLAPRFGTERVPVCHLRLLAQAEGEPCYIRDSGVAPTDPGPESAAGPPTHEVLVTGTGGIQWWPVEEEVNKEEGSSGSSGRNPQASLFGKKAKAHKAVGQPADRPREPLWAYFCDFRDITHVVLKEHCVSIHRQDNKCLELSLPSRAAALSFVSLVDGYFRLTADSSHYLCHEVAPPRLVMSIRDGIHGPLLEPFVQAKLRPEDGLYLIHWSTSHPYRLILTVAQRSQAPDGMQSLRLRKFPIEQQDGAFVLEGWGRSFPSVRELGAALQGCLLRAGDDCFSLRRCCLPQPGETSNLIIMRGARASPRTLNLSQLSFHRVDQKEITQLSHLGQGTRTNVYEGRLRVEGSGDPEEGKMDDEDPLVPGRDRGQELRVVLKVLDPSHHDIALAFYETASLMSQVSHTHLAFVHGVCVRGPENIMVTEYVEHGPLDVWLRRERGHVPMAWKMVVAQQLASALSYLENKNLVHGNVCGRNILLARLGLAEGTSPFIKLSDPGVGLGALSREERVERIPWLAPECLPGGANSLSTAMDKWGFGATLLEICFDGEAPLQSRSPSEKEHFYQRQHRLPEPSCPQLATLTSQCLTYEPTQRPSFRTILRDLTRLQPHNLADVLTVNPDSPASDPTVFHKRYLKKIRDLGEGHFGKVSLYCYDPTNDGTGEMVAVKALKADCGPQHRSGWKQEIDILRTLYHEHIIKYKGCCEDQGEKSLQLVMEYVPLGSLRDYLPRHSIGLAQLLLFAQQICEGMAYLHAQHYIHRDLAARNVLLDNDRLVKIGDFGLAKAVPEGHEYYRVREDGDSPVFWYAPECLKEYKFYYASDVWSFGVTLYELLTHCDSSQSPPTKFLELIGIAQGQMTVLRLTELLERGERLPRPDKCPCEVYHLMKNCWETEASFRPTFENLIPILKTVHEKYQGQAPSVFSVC
T1 sequence (O60674 whole entry): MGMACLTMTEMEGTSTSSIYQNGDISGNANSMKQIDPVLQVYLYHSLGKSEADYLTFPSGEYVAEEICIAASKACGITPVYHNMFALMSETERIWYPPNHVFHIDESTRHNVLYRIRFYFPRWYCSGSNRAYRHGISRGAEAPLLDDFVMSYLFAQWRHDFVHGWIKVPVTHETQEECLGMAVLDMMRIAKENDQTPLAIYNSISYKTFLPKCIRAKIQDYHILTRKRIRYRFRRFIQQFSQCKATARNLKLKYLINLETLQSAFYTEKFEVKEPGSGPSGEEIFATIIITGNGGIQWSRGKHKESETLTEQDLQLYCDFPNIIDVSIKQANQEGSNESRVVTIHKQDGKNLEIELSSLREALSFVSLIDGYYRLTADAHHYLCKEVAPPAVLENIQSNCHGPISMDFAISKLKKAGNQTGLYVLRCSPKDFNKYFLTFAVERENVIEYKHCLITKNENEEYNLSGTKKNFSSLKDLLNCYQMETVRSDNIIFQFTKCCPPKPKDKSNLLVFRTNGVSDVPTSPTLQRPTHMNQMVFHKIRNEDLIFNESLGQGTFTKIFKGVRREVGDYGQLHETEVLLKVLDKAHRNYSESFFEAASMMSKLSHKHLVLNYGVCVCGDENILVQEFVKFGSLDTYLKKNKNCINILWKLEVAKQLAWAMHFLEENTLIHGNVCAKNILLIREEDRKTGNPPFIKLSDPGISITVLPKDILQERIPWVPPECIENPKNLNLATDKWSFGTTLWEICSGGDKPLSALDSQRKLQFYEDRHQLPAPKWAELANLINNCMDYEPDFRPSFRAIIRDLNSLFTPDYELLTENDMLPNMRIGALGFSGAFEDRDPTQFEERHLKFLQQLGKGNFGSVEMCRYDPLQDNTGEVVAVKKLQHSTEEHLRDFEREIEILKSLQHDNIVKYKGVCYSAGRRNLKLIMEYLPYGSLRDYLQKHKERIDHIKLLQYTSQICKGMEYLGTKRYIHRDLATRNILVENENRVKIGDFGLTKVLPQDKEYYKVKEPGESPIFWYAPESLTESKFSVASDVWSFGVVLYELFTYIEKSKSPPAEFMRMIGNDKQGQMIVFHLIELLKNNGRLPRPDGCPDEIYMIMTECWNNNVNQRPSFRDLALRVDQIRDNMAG
T2 sequence (P23458 whole entry): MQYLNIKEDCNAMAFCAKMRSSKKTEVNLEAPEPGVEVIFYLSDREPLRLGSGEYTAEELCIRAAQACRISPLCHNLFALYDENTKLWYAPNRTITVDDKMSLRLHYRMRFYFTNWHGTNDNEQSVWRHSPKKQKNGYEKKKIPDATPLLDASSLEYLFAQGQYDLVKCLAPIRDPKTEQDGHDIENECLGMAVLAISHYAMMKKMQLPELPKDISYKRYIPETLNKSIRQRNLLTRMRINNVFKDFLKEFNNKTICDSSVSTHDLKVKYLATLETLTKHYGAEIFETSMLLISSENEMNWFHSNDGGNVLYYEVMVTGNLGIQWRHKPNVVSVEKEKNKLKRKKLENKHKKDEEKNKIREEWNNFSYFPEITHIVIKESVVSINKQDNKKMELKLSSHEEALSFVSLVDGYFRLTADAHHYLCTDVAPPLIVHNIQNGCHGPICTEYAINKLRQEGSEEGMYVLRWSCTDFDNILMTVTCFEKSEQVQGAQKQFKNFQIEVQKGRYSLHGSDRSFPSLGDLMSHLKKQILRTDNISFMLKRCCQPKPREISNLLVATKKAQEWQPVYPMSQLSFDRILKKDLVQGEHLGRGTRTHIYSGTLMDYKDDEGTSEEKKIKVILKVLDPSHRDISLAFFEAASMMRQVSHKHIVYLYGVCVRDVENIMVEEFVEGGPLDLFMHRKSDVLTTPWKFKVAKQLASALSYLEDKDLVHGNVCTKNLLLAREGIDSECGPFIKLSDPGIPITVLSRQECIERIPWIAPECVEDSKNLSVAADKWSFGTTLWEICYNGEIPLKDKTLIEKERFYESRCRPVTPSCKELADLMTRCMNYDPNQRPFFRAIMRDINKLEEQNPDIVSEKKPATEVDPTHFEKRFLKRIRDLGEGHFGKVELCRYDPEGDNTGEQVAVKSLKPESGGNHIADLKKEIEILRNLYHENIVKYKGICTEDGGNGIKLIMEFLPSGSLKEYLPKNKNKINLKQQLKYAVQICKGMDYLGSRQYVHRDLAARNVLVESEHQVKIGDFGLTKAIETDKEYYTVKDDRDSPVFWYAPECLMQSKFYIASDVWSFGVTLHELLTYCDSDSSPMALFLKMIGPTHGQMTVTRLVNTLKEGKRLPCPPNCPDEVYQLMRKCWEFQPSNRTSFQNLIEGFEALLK

Consider `O=C(NC1CC1C(F)(F)F)c1noc2c1CN(c1ncnc3[nH]ccc13)CC2` (stereo not shown) [Compound 182], for which the IC50 was 100 to 500 nM on JAK2; less than 100 nM on JAK1; less than 0.5 µM in the test on Hut-78 cells (setting [1]); less than 100 nM against JAK3; 500 to 2000 nM at TYK2.

For the compound `O=C(NCCC(F)(F)F)c1onc2c1CN(c1ncnc3[nH]ccc13)CC21CC1` [Compound 193], the IC50 at JAK2 is 100 to 500 nM; on JAK1 it was 100 to 500 nM; in the test with Hut-78 cells (setting [1]), 0.5 to 1 µM; against JAK3 it was less than 100 nM; at TYK2 it was 500 to 2000 nM.

Take `O=C(NCCC(F)(F)F)c1nn(C(=O)CCc2ccccc2)c2c1CN(c1ncnc3[nH]ccc13)CC2` [Compound 103]: the IC50 at JAK2 was 100 to 500 nM; at JAK1, 100 to 500 nM; in the test on Hut-78 cells (setting [1]), 1 to 10 µM; against JAK3, less than 100 nM; on TYK2, more than 2000 nM.

Turning to `O=C(NCC(O)C(F)(F)F)c1noc2c1CN(c1ncnc3[nH]ccc13)CC2` (stereo not shown) [Compound 190], the IC50 against JAK2 was less than 100 nM; on JAK1, less than 100 nM; in the test with Hut-78 cells (setting [1]), less than 0.5 µM; against JAK3, less than 100 nM; at TYK2, 100 to 500 nM.

For `CCS(=O)(=O)n1nc(C(=O)NCCC(F)(F)F)c2c1CCN(c1ncnc3[nH]ccc13)C2` [Compound 102], the IC50 was 100 to 500 nM on JAK2; 500 to 2000 nM on JAK1; 1 to 10 µM with Hut-78 cells (setting [1]); less than 100 nM on JAK3; more than 2000 nM on TYK2.

Take `O=C(NC(CO)CC(F)(F)F)c1noc2c1CN(c1ncnc3[nH]ccc13)CC2` (stereo not shown) [Compound 186]: the IC50 against JAK2 was less than 100 nM; on JAK1, less than 100 nM; with Hut-78 cells (setting [1]), less than 0.5 µM; against JAK3 it was less than 100 nM; at TYK2, 100 to 500 nM.

With `N#Cc1cn(C(=O)NCCC(F)(F)F)c2c1CCN(c1ncnc3[nH]ccc13)C2` [Compound 143], the IC50 was 100 to 500 nM against JAK2; 100 to 500 nM against JAK1; 1 to 10 µM with Hut-78 cells (setting [1]); less than 100 nM against JAK3; 500 to 2000 nM at TYK2.

In the case of `COCCn1nc(C(=O)NCCC(F)(F)F)c2c1CCN(c1ncnc3[nH]ccc13)C2` [Compound 104], the IC50 against JAK2 is 100 to 500 nM; against JAK1 it was 100 to 500 nM; in the test with Hut-78 cells (setting [1]), 0.5 to 1 µM; on JAK3 it was less than 100 nM; on TYK2 it was more than 2000 nM.

Take `O=C(NCC1CC1(F)F)c1noc2c1CN(c1ncnc3[nH]ccc13)CC2` (stereo not shown) [Compound 179]: the IC50 was 100 to 500 nM against JAK2; 100 to 500 nM against JAK1; 1 to 10 µM in the test with Hut-78 cells (setting [1]); less than 100 nM at JAK3; more than 2000 nM at TYK2.

`O=C(NCCC(F)(F)F)c1noc2c1CN(c1ncnc3[nH]ccc13)CC21CC1` [Compound 192]: the IC50 is 100 to 500 nM against JAK2; less than 100 nM at JAK1; 0.5 to 1 µM in the test on Hut-78 cells (setting [1]); less than 100 nM against JAK3; more than 2000 nM on TYK2.

Turning to `O=C(NC1CC(O)(C(F)(F)F)C1)c1noc2c1CN(c1ncnc3[nH]ccc13)CC2` (stereo not shown) [Compound 201], the IC50 at JAK2 is 100 to 500 nM; at JAK1, less than 100 nM; in the test on Hut-78 cells (setting [1]), less than 0.5 µM; at JAK3, less than 100 nM; at TYK2, more than 2000 nM.

Take `O=C(NCC(F)(F)F)c1noc2c1CN(c1ncnc3[nH]ccc13)CC2` [Compound 178]: the IC50 was less than 100 nM against JAK2; less than 100 nM against JAK1; 0.5 to 1 µM with Hut-78 cells (HuT78, read-out: Hut-78 cells IC50 (μM)); less than 100 nM against JAK3; 500 to 2000 nM at TYK2.

For the compound `O=C(c1noc2c1CN(c1ncnc3[nH]ccc13)CC2)N1CC(C(F)(F)F)C1` [Compound 194], the IC50 at JAK2 is less than 100 nM; at JAK1 it was less than 100 nM; with Hut-78 cells (setting [1]) it was less than 0.5 µM; against JAK3, less than 100 nM; on TYK2, 100 to 500 nM.

On to `CC1(CNC(=O)c2noc3c2CN(c2ncnc4[nH]ccc24)CC3)CC(F)(F)C1` [Compound 199], for which the IC50 against JAK2 is 100 to 500 nM; on JAK1, less than 100 nM; in the test on Hut-78 cells (setting [1]), less than 0.5 µM; on JAK3, less than 100 nM; on TYK2 it was 500 to 2000 nM.

Regarding `O=C(N[C@H]1C[C@@](O)(C(F)(F)F)C1)c1noc2c1CN(c1ncnc3[nH]ccc13)CC2` [Compound 202], the IC50 against JAK2 was less than 100 nM; against JAK1, less than 100 nM; in the test with Hut-78 cells (setting [1]) it was less than 0.5 µM; against JAK3 it was less than 100 nM; on TYK2 it was 500 to 2000 nM.

On to `O=C(NCC1CC(F)(F)C1)c1noc2c1CN(c1ncnc3[nH]ccc13)CC2` [Compound 198], for which the IC50 against JAK2 was 100 to 500 nM; at JAK1, less than 100 nM; in the test on Hut-78 cells (setting [1]) it was less than 0.5 µM; against JAK3 it was less than 100 nM; on TYK2 it was more than 2000 nM.

With `O=C(NCCC(F)(F)F)c1n[nH]c2c1CN(c1ncnc3[nH]ccc13)CC2` [Compound 109], the IC50 is 100 to 500 nM on JAK2; less than 100 nM at JAK1; 1 to 10 µM in the test on Hut-78 cells (setting [1]); less than 100 nM at JAK3; 500 to 2000 nM at TYK2.
